Measured values taken from PMC6791383, “A side-by-side evaluation of [^18F]FDOPA enantiomers for non-invasive detection of neuroendocrine tumors by positron emission tomography” (Oncotarget, 2019).

Columns and labels:
STC-1 xenografts [1] = experiment: In vivo PET-CT quantitative image analysis, STC-1 xenografts; details: STC-1 tumors, NSG mice, 9MBq
Procedure: (§1) All animal studies were carried out according to regulations set forth and approved by the Johns Hopkins Animal Care and Use Committee. Female, 6- to 8-weeks-old immunodeficient NOD scid gamma (NSG) mice were subcutaneously inoculated with 1 million PC12, STC-1 or COLO-320 cells in […] of Hank’s balanced salt solution in the top flank. Tumors of 4–6 mm in diameter (typically 14-21 days post inoculation) were utilized for in vivo imaging or ex vivo biodistribution studies.
(§2) Mice (n=4) were injected with 9MBq (250μCi) of each tracer in 150μL of saline intravenously and anesthetized with 3% isoflurane prior to being placed on the scanner bed. Mice were kept warm with an external light source and maintained at 1% isoflurane levels while being scanned. PET imaging (2 beds; 10 min per bed) was carried out using an ARGUS small-animal PET/CT scanner (Sedecal). A CT scan (512 projections) was obtained at the end of each PET scan for anatomical co-registration. For in vivo blocking experiments, mice were injected with 10meq of LAT1 inhibitor. PET data were reconstructed using the 2-dimensional ordered subsets-expectation maximization algorithm (2D-OSEM) and corrected for dead time and radioactive decay. Data visualization and image generation were carried out using Amira 2019.1 (ThermoFisher Scientific).
(§3) Quantitative in vivo image analysis was carried out in AMIDE (SourceForge) 1.0.4 utilizing ellipsoid region-of-interest volume integrations with 3 slices entailing a depth of 1.9 mm per slice. The %ID per cc values were calculated based on a calibration factor obtained from a phantom (known radioactive quantity in a known volume).

[2] = system: NET xenografts (STC-1, PC12, COLO-320); experiment: Ex vivo biodistribution, across all NET mouse models; type: in vivo, mice; details: for brain accumulation, average in all NET mice: average over STC-1, COLO-320 and PC12 mice; for retention in small intestines, fold lower than L-[^18F]FDOPA: all NET models
Procedure: as §1
(§4) Mice (n=5 per group) were intravenously injected with 1.5MBq (40μCi) of each tracer in 150μL of saline. Ex vivo biodistribution studies were performed at 30min and 120min time points after tracer administration. Blood, liver, spleen, heart, lungs, kidneys, small intestines, stomach, muscle, fat, bone, bladder, brain and tumor tissues were retrieved, weighed, and counted in an automated gamma counter (1282 Compugamma CS). Percentage injected dose per gram (%ID/g) values were calculated based on normalization to external standards, counted in triplicate, and accounted for signal-decay correction.

PC12 xenografts = experiment: In vivo PET-CT quantitative image analysis, PC12 xenografts; details: PC12 tumors, NSG mice, 9MBq
Procedure: as §1, §2, §3

LAT1 = experiment: In vivo PET-CT blocking by BCH in NET mouse models; parameters: species or system mice; details: all NET mouse models (PC12, STC-1, COLO-320), 10meq LAT1 inhibitor
Procedure: as §2, §3

COLO-320 xenografts [3] = experiment: In vivo PET-CT quantitative image analysis, COLO-320 xenografts; details: COLO-320 tumors, NSG mice, 9MBq
Procedure: as §1, §2, §3

COLO-320 xenografts [4] = experiment: Ex vivo biodistribution in NSG mice bearing COLO-320 xenografts; details: for Biodistribution, Bladder / Biodistribution, Blood / Biodistribution, Bone / Biodistribution, Brain / Biodistribution, Fat / Biodistribution, Heart / Biodistribution, Kidneys / Biodistribution, Liver / Biodistribution, Lungs / Biodistribution, Muscle / Biodistribution, Pancreas / Biodistribution, Small Intestines / Biodistribution, Spleen / Biodistribution, Stomach / Biodistribution, Tumor: COLO-320 xenograft NSG mice, 1.5MBq i.v.
Procedure: as §1, §4

STC-1 xenografts [5] = experiment: Ex vivo biodistribution in NSG mice bearing STC-1 xenografts; details: for Biodistribution, Bladder / Biodistribution, Blood / Biodistribution, Bone / Biodistribution, Brain / Biodistribution, Fat / Biodistribution, Heart / Biodistribution, Kidneys / Biodistribution, Liver / Biodistribution, Lungs / Biodistribution, Muscle / Biodistribution, Pancreas / Biodistribution, Small Intestines / Biodistribution, Spleen / Biodistribution, Stomach / Biodistribution, Tumor: STC-1 xenograft NSG mice, 1.5MBq i.v.
Procedure: as §1, §4

TGP61 cells = experiment: In vitro uptake (binding) assay in TGP61 cells; type: cell-based; details: 30mins incubation, 1 million cells, % incubated dose/million cells
Procedure: Both [^18F]FDOPA enantiomers were initially assessed in vitro in all NET cells.
In vitro binding assays were carried out, in triplicate, in PBS with 0.5% FBS, for 30mins at ambient temperatures using 1 million cells and repeated three times. Blocking studies were carried out using 10meq of the commercial LAT1 inhibitor, 2-Aminobicyclo[2.2.1]heptane-2-carboxylic acid (TOCRIS, MN, USA). Following incubation with each tracer, cells were rinsed three times with cold PBS prior to being counted on an automated gamma counter (1282 Compugamma CS; Pharmacia/LKBNuclear, Inc.) along with external standards. Obtained counts were converted into percentage incubated dose per million cells based on normalization to external standards. Experiments were performed in triplicate and repeated three times.

With N[C@H](Cc1cc(O)c(O)cc1[18F])C(=O)O [D-[^18F]FDOPA, 3,4-dihydroxy-6-[^18F]fluoro-D-phenylalanine] the “tumor uptake, quantitative PET image analysis” value (STC-1 xenografts [1]; 30min post i.v. injection) was 12.01±1.61 %ID/cc, the “tumor uptake, quantitative PET image analysis” value (STC-1 xenografts [1]; 120min post i.v. injection) was 3.34±0.32 %ID/cc and the “brain accumulation, average in all NET mice” value ([2]; 30min p.i.) was 0.31±0.05 %ID/g. For the same molecule, the “brain accumulation, average in all NET mice” value ([2]; 120min p.i.) was 0.34±0.08 %ID/g, the “hepatic retention, fold lower than L-[^18F]FDOPA” value ([2]; NET models) was “up to 4 fold” and the “renal retention, fold lower than L-[^18F]FDOPA” value ([2]; NET models) was “up to 4 fold”. For the same molecule, the “retention in small intestines, fold lower than L-[^18F]FDOPA” value ([2]; 30min) was “up to 4 fold”, the “retention in small intestines, fold lower than L-[^18F]FDOPA” value ([2]; 120min p.i.) was “up to 7 fold” and the “tumor uptake, quantitative PET image analysis” value (PC12 xenografts; 30min post i.v. injection) was 8.87±0.31 %ID/cc. The “tumor uptake, quantitative PET image analysis” value (PC12 xenografts; 120min post i.v. injection) was 3.96±0.34 %ID/cc, the “tumor uptake after in vivo blocking by BCH” value (LAT1) was “significantly reduced” and the “tumor uptake, quantitative PET image analysis” value (COLO-320 xenografts [3]; 30min post i.v. injection) was 7.20±0.35 %ID/cc. For the same molecule, the “tumor uptake, quantitative PET image analysis” value (COLO-320 xenografts [3]; 120min post i.v. injection) was 6.93±0.80 %ID/cc, the “pancreatic retention, fold lower compared to L-[^18F]FDOPA” value (COLO-320 xenografts [4]; COLO-320 mice, 120min p.i.) was 12 fold and the “Biodistribution, Bladder” value (COLO-320 xenografts [4]; 30min p.i.) was 3.81 %ID/g. The “Biodistribution, Blood” value (COLO-320 xenografts [4]; 30min p.i.) was 2.58 %ID/g, the “Biodistribution, Bone” value (COLO-320 xenografts [4]; 30min p.i.) was 3.28 %ID/g and the “Biodistribution, Brain” value (COLO-320 xenografts [4]; 30min p.i.) was 0.19 %ID/g. The “Biodistribution, Fat” value (COLO-320 xenografts [4]; 30min p.i.) was 0.31 %ID/g, the “Biodistribution, Heart” value (COLO-320 xenografts [4]; 30min p.i.) was 1.57 %ID/g and the “Biodistribution, Kidneys” value (COLO-320 xenografts [4]; 30min p.i.) was 7.05 %ID/g. For the same molecule, the “Biodistribution, Liver” value (COLO-320 xenografts [4]; 30min p.i.) was 2.65 %ID/g, the “Biodistribution, Lungs” value (COLO-320 xenografts [4]; 30min p.i.) was 3.60 %ID/g and the “Biodistribution, Muscle” value (COLO-320 xenografts [4]; 30min p.i.) was 0.89 %ID/g. For the same molecule, the “Biodistribution, Pancreas” value (COLO-320 xenografts [4]; 30min p.i.) was 34.93 %ID/g, the “Biodistribution, Small Intestines” value (COLO-320 xenografts [4]; 30min p.i.) was 3.89 %ID/g and the “Biodistribution, Spleen” value (COLO-320 xenografts [4]; 30min p.i.) was 4.77 %ID/g. For the same molecule, the “Biodistribution, Stomach” value (COLO-320 xenografts [4]; 30min p.i.) was 2.48 %ID/g, the “Biodistribution, Tumor” value (COLO-320 xenografts [4]; 30min p.i.) was 3.61 %ID/g and the “Biodistribution, Bladder” value (COLO-320 xenografts [4]; 120min p.i.) was 3.68 %ID/g. For the same molecule, the “Biodistribution, Blood” value (COLO-320 xenografts [4]; 120min p.i.) was 0.51 %ID/g, the “Biodistribution, Bone” value (COLO-320 xenografts [4]; 120min p.i.) was 4.10 %ID/g and the “Biodistribution, Brain” value (COLO-320 xenografts [4]; 120min p.i.) was 0.19 %ID/g. The “Biodistribution, Fat” value (COLO-320 xenografts [4]; 120min p.i.) was 0.29 %ID/g, the “Biodistribution, Heart” value (COLO-320 xenografts [4]; 120min p.i.) was 0.80 %ID/g and the “Biodistribution, Kidneys” value (COLO-320 xenografts [4]; 120min p.i.) was 1.44 %ID/g. The “Biodistribution, Liver” value (COLO-320 xenografts [4]; 120min p.i.) was 0.54 %ID/g, the “Biodistribution, Lungs” value (COLO-320 xenografts [4]; 120min p.i.) was 1.52 %ID/g and the “Biodistribution, Muscle” value (COLO-320 xenografts [4]; 120min p.i.) was 1.12 %ID/g. For the same molecule, the “Biodistribution, Pancreas” value (COLO-320 xenografts [4]; 120min p.i.) was 3.12 %ID/g, the “Biodistribution, Small Intestines” value (COLO-320 xenografts [4]; 120min p.i.) was 1.46 %ID/g and the “Biodistribution, Spleen” value (COLO-320 xenografts [4]; 120min p.i.) was 1.67 %ID/g. For the same molecule, the “Biodistribution, Stomach” value (COLO-320 xenografts [4]; 120min p.i.) was 0.99 %ID/g, the “Biodistribution, Tumor” value (COLO-320 xenografts [4]; 120min p.i.) was 3.72 %ID/g and the “pancreatic retention, fold lower compared to L-[^18F]FDOPA” value (STC-1 xenografts [5]; STC-1 mice, 120min p.i.) was “approximately 2 fold”. The “Biodistribution, Bladder” value (STC-1 xenografts [5]; 30min p.i.) was 20.49 %ID/g, the “Biodistribution, Blood” value (STC-1 xenografts [5]; 30min p.i.) was 4.31 %ID/g and the “Biodistribution, Bone” value (STC-1 xenografts [5]; 30min p.i.) was 3.94 %ID/g. The “Biodistribution, Brain” value (STC-1 xenografts [5]; 30min p.i.) was 0.55 %ID/g, the “Biodistribution, Fat” value (STC-1 xenografts [5]; 30min p.i.) was 2.27 %ID/g and the “Biodistribution, Heart” value (STC-1 xenografts [5]; 30min p.i.) was 2.52 %ID/g. The “Biodistribution, Kidneys” value (STC-1 xenografts [5]; 30min p.i.) was 12.32 %ID/g, the “Biodistribution, Liver” value (STC-1 xenografts [5]; 30min p.i.) was 3.85 %ID/g and the “Biodistribution, Lungs” value (STC-1 xenografts [5]; 30min p.i.) was 6.63 %ID/g. The “Biodistribution, Muscle” value (STC-1 xenografts [5]; 30min p.i.) was 1.62 %ID/g, the “Biodistribution, Pancreas” value (STC-1 xenografts [5]; 30min p.i.) was 61.64 %ID/g and the “Biodistribution, Small Intestines” value (STC-1 xenografts [5]; 30min p.i.) was 10.28 %ID/g. For the same molecule, the “Biodistribution, Spleen” value (STC-1 xenografts [5]; 30min p.i.) was 17.41 %ID/g, the “Biodistribution, Stomach” value (STC-1 xenografts [5]; 30min p.i.) was 9.37 %ID/g and the “Biodistribution, Tumor” value (STC-1 xenografts [5]; 30min p.i.) was 6.92 %ID/g. The “Biodistribution, Bladder” value (STC-1 xenografts [5]; 120min p.i.) was 7.51 %ID/g, the “Biodistribution, Blood” value (STC-1 xenografts [5]; 120min p.i.) was 1.49 %ID/g and the “Biodistribution, Bone” value (STC-1 xenografts [5]; 120min p.i.) was 5.28 %ID/g. For the same molecule, the “Biodistribution, Brain” value (STC-1 xenografts [5]; 120min p.i.) was 1.30 %ID/g, the “Biodistribution, Fat” value (STC-1 xenografts [5]; 120min p.i.) was 1.14 %ID/g and the “Biodistribution, Heart” value (STC-1 xenografts [5]; 120min p.i.) was 1.58 %ID/g. For the same molecule, the “Biodistribution, Kidneys” value (STC-1 xenografts [5]; 120min p.i.) was 2.30 %ID/g, the “Biodistribution, Liver” value (STC-1 xenografts [5]; 120min p.i.) was 1.60 %ID/g and the “Biodistribution, Lungs” value (STC-1 xenografts [5]; 120min p.i.) was 2.34 %ID/g. The “Biodistribution, Muscle” value (STC-1 xenografts [5]; 120min p.i.) was 2.66 %ID/g, the “Biodistribution, Pancreas” value (STC-1 xenografts [5]; 120min p.i.) was 9.75 %ID/g and the “Biodistribution, Small Intestines” value (STC-1 xenografts [5]; 120min p.i.) was 3.80 %ID/g. For the same molecule, the “Biodistribution, Spleen” value (STC-1 xenografts [5]; 120min p.i.) was 0.61 %ID/g, the “Biodistribution, Stomach” value (STC-1 xenografts [5]; 120min p.i.) was 4.84 %ID/g and the “Biodistribution, Tumor” value (STC-1 xenografts [5]; 120min p.i.) was 3.15 %ID/g. The in vitro uptake (TGP61 cells) was 3.11±0.41%.
